Laboratory results reported in patent US20190062671A1, “PERFUME COMPOSITIONS” (Givaudan SA, priority 2016, published 2019).
“Also recorded” adds a separate entry of the source.

Legend:
KeratinoSens cells = assay: Cytotoxicity / cellular viability in the KeratinoSens assay; type: cell-based; details: single chemicals, 48 h
Protocol: (§1) Compounds were tested using the commercial KeratinoSens® assay for skin sensitization. The KeratinoSens® test compares the potential skin sensitization risk of chemicals. […] KeratinoSens® cells were grown for 24 h in 96-well plates. The medium was then replaced with medium containing the test chemical and the solvent dimethylsulfoxide (DMSO) at a final level of 1% (v/v). Each compound was tested at 12 binary dilutions in the range from 0.98 to 2000 μM. Cells were incubated for 48 h with the test agents, and then luciferase activity and cytotoxicity were determined. This full procedure was repeated three times for each chemical. For each chemical in each repetition and at each concentration, the gene induction compared to DMSO controls and the wells with statistically significant induction over the threshold of 1.5 (i.e. 50% enhanced gene activity) were determined. Furthermore, the maximal fold-induction (Imax) and the EC1.5 value (concentration in μM for induction above the threshold) were calculated.
(§2) All compositions were tested in the concentration range from 0.2-400 ppm (parts per million in weights per volume).

[1] = tested on: Nrf2-dependent luciferase (ARE-element of the gene AKR1C2) in KeratinoSens cell line; assay: KeratinoSens assay, luciferase gene induction (OECD TG 442d); details: single chemicals; for Rating in the KeratinoSens assay (skin sensitization): threshold 1.5-fold induction
Protocol: The level of skin sensitization can reliably and quantitatively be measured experimentally by the KeratinoSens® method, which measures the induction of Nrf2-dependent luciferase in a skin cell line.
as §1, §2

[2] = biological target: test peptide Cor1C-420 (Ac-NKKCDLF) (Homo sapiens, UniProt Q9ULV4, I423F); assay: Modified direct peptide reactivity assay with LC-MS detection of peptide adducts; details: for Peptide reactivity: quantification, % of parent peptide modified: pH 7.5
Protocol: Alternatively, the sensitization potential can be quantified by measuring the reactivity of test chemicals with peptides.
It is based on the fact that allergenic chemicals must react with a peptide/protein in order to be immunogenic.
The samples were incubated for 24 h at 37° C. and analysed by LC-MS analysis on a VELOS PRO Mass spectrometer (Thermo […], San Jose, Calif., U.S.A.) operated in the ESI(+) mode.
Mass spectra were recorded from 200-2000 amu. A ZORBAX Eclipse XDB-C18 column, 2.1 mm ID, 150 mm, 5-Micron (Agilent Technologies) was used. The mobile phase consisted of H2O (A) and methanol (B) each containing 0.1% formic acid (v/v). The solvent flow was 250 μl/min and the following gradient (ratio A:B) was used: 0 min, 95:5; 2 min, 40:60; 10 min, 2:98; 12 min, 2:98. The integration was performed with Xcalibur Quan Browser™.
In order to detect formation of modified peptides, the specific ion trace for a new adduct with the mass of the test chemical added to the test peptide is extracted, and the peak of the peptide-adduct is integrated. Peptide adduct formation is a particular sensitive endpoint to determine reactive, and thus allergenic nature of compounds.

[3] = 1 mM test chemical, 0.1 mM peptide, 24 h at 37° C.

SMILES	Concentration for 50% Cytotoxicity (KeratinoSens cells) [µM]	Imax (fold maximal gene induction) ([1]; 0.98 to 2000 μM, 48 h) [fold]	Concentration for 1.5-fold gene induction (EC 1.5 in μM) ([1]; 48 h, n.i. = no induction above threshold of 1.5 (negative rating))	Rating in the KeratinoSens assay (skin sensitization) [1]	Peptide reactivity: adduct observation [2, 3]	Peptide reactivity: quantification, % of parent peptide modified [2, 3]	Peptide reactivity: adduct observation ([2]; 1 mM test chemical, 0.1 mM peptide, 24 h at 37° C., listed as II)	Peptide reactivity / adduct amount, fold lower as compared to Citral ([2]; relative to Citral) [fold]	Peptide reactivity: quantification, % of parent peptide modified ([2]; 24 h, 1 mM)
CC(C)=CCC(C)/C=C(\C)C=O (centres unmarked) [2,4,7-trimethyl-2,6,-octadienal]	317.8	1.40	n.i.	non-sensitizing; also recorded: does not surpass the threshold for a positive rating up to the top dose	only traces were formed	observed, 0.3% of parent	Extremely low activity,	27	–
CC(C)=CCCC(C)=CC=O [Citral, 3,7-dimethyl-2,6-octadienal, reference compound]	95.5	–	–	highly active	–	–	–	–	8.1% of parent
